The supplement of paper PMC10331698
± gives the standard deviation of the averaged measurements.

Assays:
Assay in all cases: level (log10 ratio to DMSO vehicle control); higher = higher biomarker level / cell amount than vehicle control
[1] = compound: C=C(C)C(=O)OCCC(F)(F)C(F)(F)C(F)(F)C(F)(F)C(F)(F)C(F)(F)C(F)(F)C(F)(F)F [8:2 Fluorotelomer methacrylate] (in DMSO)
Procedure: (§1)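 BioMAP Diversity Plus panel of 12 human primary cell co-culture systems (3C, 4H, LPS, SAg, BT, BF4T, BE3C, CASM3C, HDF3CGF, KF3CT, MyoF, Mphg). Compounds were added 1 h before stimulation and left for 24 h (MyoF 48 h; BT 72 h for soluble read-outs or 6 d for IgG). Biomarkers were read by ELISA, cytotoxicity by SRB, PBMC viability and proliferation by Alamar Blue. Each well value was divided by the mean of 8 DMSO control wells on the same plate and log10 transformed; duplicate blinded samples were tested at 4 concentrations.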

Perfluorononanoic acid = compound: O=C(O)C(F)(F)C(F)(F)C(F)(F)C(F)(F)C(F)(F)C(F)(F)C(F)(F)C(F)(F)F [Perfluorononanoic acid] (in DMSO)
Procedure: as §1

[2] = compound: O=C(O)C(F)(F)C(F)(F)C(F)(F)OC(F)(F)F [Perfluoro(4-methoxybutanoic) acid] (in DMSO)
Procedure: as §1

[3] = compound: O=C(O)C(F)(OC(F)(F)C(F)(F)C(F)(F)F)C(F)(F)F [Ammonium perfluoro-2-methyl-3-oxahexanoate] (in Water)
Procedure: as §1

[4] = compound: O=C(O)C(F)(OC(F)(F)C(F)(OC(F)(F)C(F)(OC(F)(F)C(F)(F)C(F)(F)F)C(F)(F)F)C(F)(F)F)C(F)(F)F [Perfluoro-(2,5,8-trimethyl-3,6,9-trioxadodecanoic)acid] (in DMSO)
Procedure: as §1

[5] = compound: O=S(=O)(O)C(F)(F)C(F)(F)C(F)(F)C(F)(F)C(F)(F)C(F)(F)C(F)(F)F [Perfluoroheptanesulfonic acid] (in DMSO)
Procedure: as §1

[6] = compound: O=S(=O)(O)C(F)(F)C(F)(F)OC(F)(F)C(F)(F)F [Perfluoro(2-ethoxyethane)sulfonic acid] (in DMSO)
Procedure: as §1

Row | Test System | level (log10) ([1]; 6700 nM) | level (log10) ([1]; 20000 nM) | level (log10) (Perfluorononanoic acid; 6700 nM) | level (log10) (Perfluorononanoic acid; 20000 nM) | level (log10) ([2]; 6700 nM) | level (log10) ([2]; 20000 nM) | level (log10) ([2]; 60000 nM) | level (log10) ([3]; 6700 nM) | level (log10) ([3]; 20000 nM) | level (log10) ([3]; 60000 nM) | level (log10) ([4]; 1100 nM) | level (log10) ([4]; 3300 nM) | level (log10) ([4]; 10000 nM) | level (log10) ([5]; 1500 nM) | level (log10) ([5]; 4400 nM) | level (log10) ([5]; 13000 nM) | level (log10) ([5]; 40000 nM) | level (log10) ([6]; 6700 nM) | level (log10) ([6]; 20000 nM) | level (log10) ([6]; 60000 nM)
1 | HDF3CGF:CXCL11/I-TAC | -0.0105 ± 0.025 | -0.0715 ± 0.013 | 0.018 ± 0.013 | 0.0285 ± 0.018 | -0.0035 ± 0.005 | 0.0045 ± 0.0078 | -0.0075 ± 0.0035 | 0.002 ± 0.0057 | -0.0045 ± 0.019 | 0.002 ± 0.0099 | -0.0015 ± 0.011 | 0.003 ± 0.014 | -0.0265 ± 0.033 | -0.042 ± 0.054 | -0.001 ± 0.0099 | -0.035 ± 0.018 | -0.0525 ± 0.035 | 0.0165 ± 0.022 | 0.0055 ± 0.021 | -0.0365 ± 0.063
2 | HDF3CGF:Collagen I | -0.0255 ± 0.029 | -0.001 ± 0.083 | 0.0345 ± 0.005 | -0.0715 ± 0.036 | -0.0125 ± 0.015 | 0.0115 ± 0.049 | 0.033 ± 0.061 | -0.029 ± 0.031 | 0.0015 ± 0.005 | -0.0095 ± 0.0092 | 0.027 ± 0.0028 | -0.014 ± 0.051 | 0.0475 ± 0.013 | -0.0005 ± 0.011 | -0.0075 ± 0.021 | -0.0105 ± 0.025 | 0.021 ± 0.075 | -0.046 ± 0.024 | -0.037 ± 0.031 | 0.017 ± 0.055
3 | HDF3CGF:Collagen III | -0.032 ± 0.042 | -0.0325 ± 0.067 | -0.0705 ± 0.043 | -0.168 ± 0.02 | 0.0075 ± 0.033 | 0 ± 0.0099 | -0.007 ± 0.021 | -0.0055 ± 0.0064 | -0.015 ± 0.041 | -0.0705 ± 0.028 | -0.064 ± 0.072 | 0.014 ± 0.048 | 0.0695 ± 0.023 | -0.004 ± 0.018 | -0.0385 ± 0.053 | -0.052 ± 0.05 | -0.0205 ± 0.033 | -0.062 ± 0.12 | -0.08 ± 0.085 | -0.025 ± 0.16
4 | HDF3CGF:EGFR | -0.048 ± 0.071 | 0.0215 ± 0.091 | 0.0115 ± 0.057 | -0.037 ± 0.013 | -0.002 ± 0.072 | 0.02 ± 0.055 | 0.0015 ± 0.053 | -0.017 ± 0.014 | 0.0145 ± 0.026 | 0.0535 ± 0.005 | -0.0365 ± 0.15 | -0.113 ± 0.16 | 0.025 ± 0.04 | 0.0085 ± 0.026 | -0.024 ± 0.059 | -0.033 ± 0.057 | 0.0245 ± 0.11 | -0.035 ± 0.05 | -0.017 ± 0.042 | 0.0315 ± 0.07
5 | HDF3CGF:M-CSF | -0.0295 ± 0.019 | -0.093 ± 0.013 | 0.0115 ± 0.025 | -0.028 ± 0.028 | -0.0135 ± 0.0035 | -0.0075 ± 0.005 | 0.0115 ± 0.039 | -0.0345 ± 0.00071 | -0.0245 ± 0.013 | -0.0595 ± 0.035 | 0.0165 ± 0.0064 | 0.0005 ± 0.033 | -0.03 ± 0.092 | -0.0025 ± 0.011 | 0.0075 ± 0.019 | 0.003 ± 0.016 | 0 ± 0.034 | 0.004 ± 0.011 | -0.0075 ± 0.0092 | -0.009 ± 0.016
6 | HDF3CGF:MMP-1 | 0.013 ± 0.011 | 0.009 ± 0.018 | -0.008 ± 0.0099 | -0.012 ± 0.0042 | -0.0015 ± 0.015 | -0.015 ± 0.0028 | -0.0235 ± 0.0021 | 0.0035 ± 0.016 | 0.011 | 0.008 ± 0.0085 | 0.029 ± 0.018 | 0.023 ± 0.0028 | -0.0075 ± 0.0021 | 0.0235 ± 0.013 | 0.013 ± 0.014 | 0.0205 ± 0.018 | 0.009 ± 0.024 | -0.004 ± 0.0071 | -0.0135 ± 0.029 | -0.0235 ± 0.053
